From patent US20250154112A1, “A PREPARATION OF QUINAZOLINEDIONES AND USE THEREOF” (COUNCIL OF SCIENTIFIC AND INDUSTRIAL RESEARCH AN INDIAN …, priority 2021, published 2025)
pEC50: −log10 of the molar value. In brackets after ≈: the same amount, converted by molar mass.

Key:
ATGL = experiment: Western blot of ATGL level in HepG2 cells after compound treatment; type: cell-based; details: 24 hours; for ATGL level (Western Blot): 50 nM to 5 μM dose dependent, with respect to control; for induction of ATGL (Western Blot): 5 μM
Experimental: (§1) HepG2 cells were treated with the compounds 5, 8, 11, 59, 62, 91, 94 (50 nM, 100 nM, 200 nM, 500 nM, 1 μM and 5 μM for dose dependent assays) for 24 hours. After removing media from the cells, the wells were washed with 1×PBS twice to remove any remnant media. Cells were then lysed in lysis buffer containing 50 mM Tris-HCl (pH 7.4), 100 mM NaCl, 1 mM EDTA, 1 mM EGTA, 1% Triton X-100 and protease inhibitor cocktail (Millipore, Billierica, MA, USA). Following centrifugation at 20,000 g for 20 minutes, the protein solution was extracted from the cells. Protein was estimated using Bradford assay. Bradford's reagent (BioRad) was diluted in 1:4 ratio in double distilled water. 2 μl of protein sample was added to 100 μl of the reagent and absorbance was measured at 595 nm. 30 μg of protein was diluted in lysis buffer. 1X loading buffer diluted from 5X stock containing 250 mM Tris-HCl (pH 6.8), 10% SDS, 50% glycerol, 0.1% bromophenol Blue and 10% β-mercaptoethanol was added. The protein samples were then heated at 95° C. for 10 minutes, cooled and centrifuged at 12,000 g for 2 minutes prior to loading.
For western blotting, the proteins were resolved in 10% SDS PAGE (discontinuous buffer system). 1X running buffer containing SDS, Tris Base and Glycine was used to run the gel at 80V for approximately 2 hours. Transfer was done using PVDF membrane (Millipore) having pore size of 0.45 μm. 1X transfer buffer containing Tris-Base, Glycine and 20% methanol was used for wet transfer. Transfer was done at 90V for 3 hours. Following transfer, the PVDF membrane containing the proteins were washed in 1×PBST comprising of 1×PBS and 1% Tween 20 (Sigma Aldrich). The membrane was then incubated for 1 hour at room temperature in 5% skim milk powder to block the non-specific sites. Following multiple washes with 1×PBST to wash away any remaining blocking buffer, the required primary antibody (COP1 [BethylLaboraties], ATGL [Cell Signalling Technology] or Actin[Cell Signalling Technology]) prepared with 1×PBST, 1% Bovine Serum Albumin and 0.04% Sodium Azide was added to the membrane and incubated overnight at 4° C. The next day, the membrane was again washed multiple times with 1×PBST to remove any unbound primary antibody. The membrane was then incubated with goat anti-rabbit secondary antibody (Genei) for 1 hour at room temperature and washed again for multiple times with 1×PBST. The membrane was then developed using Clarity™ ECL Western Blotting Substrate (BioRad) and viewed in ChemiDoc (BioRad).
as §1, with “62, 65,” for “62,”, “at” for “(50 nM, 100 nM, 200 nM, 500 nM, 1 μM and”, “μM” for “μM for dose dependent assays)”, “cocktail 1” for “cocktail”

COP1 = biological target: T1, COP1 (Mus musculus, UniProt Q9R1A8); experiment: In vivo study, Western blot of COP1 in mice liver and adipose tissue; design: species or system C57BL/6 mice; details: 80 mg/kg orally, 9 days
T1 construct: from tissue; host or cells: liver and adipose tissue of C57BL/6 mice
Experimental: 6-8 weeks old healthy male C57BL/6 mice (average weight: 28 grams) were taken for the study. These were then divided into two groups comprising of three mice per group (Control, compound 62). Mice were fed with 80 mg/kg of compound 62 orally. The compound was dissolved in 10% EtOH, 40% PEG, 20% PG, 30% NaCl solution (0.9%). The control group was fed only with the solvent in which the compound was dissolved. Post 9 days of one-time feeding mice were sacrificed and a portion of the excised liver tissue and adipose was homogenized in lysis buffer containing protease inhibitor cocktail. The homogenate was centrifuged at 20,000 g for 30 minutes following which the supernatant containing the protein lysate was collected. The lysate was then diluted accordingly, and protein estimation was carried out by Bradford Assay. This was followed by Western Blotting wherein the levels of ATGL and COP1 were checked. Actin was used as the loading control.

[1] = Determination of EC50 (in-vitro)
Kinetic solubility = type: physicochemical; details: pH 7.4 phosphate buffer (PBS), aqueous buffer, kinetic from dmso stock, room temperature, 1.0% DMSO
Experimental: PBS sachet was dissolved in 0.9 L of Milli Q water and pH was adjusted to 7.4. Final volume was made up to 1 L with the water and stored at ambient temperature 21-25° C. […] 4 μL from the 50 mM stock solution were added to deep well plate containing 396 μL of pH 7.4 phosphate buffer, mixed and incubated for 24 hours at room temperature with constant mixing at 300 rpm. The plate was sealed well during the incubation process. After incubation, the samples were centrifuged for 20 min at 4000 rpm. The supernatant was analysed by HPLC-UV. The DMSO content in the sample was 1.0%. The final concentration of the compound in deep well plate was 500 μM.

T1 sequence (Q9R1A8 whole entry): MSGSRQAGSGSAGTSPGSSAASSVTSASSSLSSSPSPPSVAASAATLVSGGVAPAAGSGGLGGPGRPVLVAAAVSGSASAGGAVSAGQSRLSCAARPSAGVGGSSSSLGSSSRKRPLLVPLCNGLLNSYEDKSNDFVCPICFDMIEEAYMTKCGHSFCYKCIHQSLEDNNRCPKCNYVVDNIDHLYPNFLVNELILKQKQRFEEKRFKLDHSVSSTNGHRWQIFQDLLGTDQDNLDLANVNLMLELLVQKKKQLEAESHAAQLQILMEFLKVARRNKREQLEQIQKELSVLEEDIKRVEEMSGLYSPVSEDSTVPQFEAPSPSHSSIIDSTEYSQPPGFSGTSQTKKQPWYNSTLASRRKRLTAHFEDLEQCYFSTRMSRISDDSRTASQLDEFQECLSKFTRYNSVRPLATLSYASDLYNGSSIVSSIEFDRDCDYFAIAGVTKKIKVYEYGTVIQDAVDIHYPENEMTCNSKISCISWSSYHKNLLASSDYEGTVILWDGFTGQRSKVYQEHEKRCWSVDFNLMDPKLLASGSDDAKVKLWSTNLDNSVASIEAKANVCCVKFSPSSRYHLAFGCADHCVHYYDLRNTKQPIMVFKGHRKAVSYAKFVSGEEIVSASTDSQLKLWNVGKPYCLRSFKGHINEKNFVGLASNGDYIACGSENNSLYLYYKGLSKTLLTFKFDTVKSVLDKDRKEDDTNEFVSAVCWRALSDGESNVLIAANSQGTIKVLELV

| pEC50 [1] | solubility kinetic at 24 hours (Kinetic solubility) [µg/mL] | Compound | ATGL level (Western Blot) (ATGL) | induction of ATGL (Western Blot) (ATGL) | COP1 levels in liver and adipose lysates (COP1) |
| --- | --- | --- | --- | --- | --- |
| 7.34 | 116 (≈ 228 µM) | COCCn1c(=O)c2cc(NC(=O)Nc3cccc(C(C)=O)c3)ccc2n(CCN2CCCCC2)c1=O [Compound 62, 1-(3-acetylphenyl)-3-(3-(2-methoxyethyl)-2,4-dioxo-1-(2-(piperidin-1-yl)ethyl)-1,2,3,4-tetrahydroquinazolin-6-yl)urea] | increased ATGL level | ability to induce ATGL | effective in increasing ATGL and COP1 levels |
| – | 0.8 (≈ 2.02 µM) | COCCn1c(=O)[nH]c2ccc(NC(=O)Nc3cccc(C(C)=O)c3)cc2c1=O [Compound 5, 1-(3-acetylphenyl)-3-(3-(2-methoxyethyl)-2,4-dioxo-1,2,3,4-tetrahydroquinazolin-6-yl)urea] | increased ATGL level | ability to induce ATGL | – |
| – | 89.9 (≈ 172 µM) | COCCn1c(=O)c2cc(NC(=O)Nc3cccc(C(C)=O)c3)ccc2n(CCCN2CCOCC2)c1=O [Compound 94, 1-(3-acetylphenyl)-3-(3-(2-methoxyethyl)-1-(3-morpholinopropyl)-2,4-dioxo-1,2,3,4-tetrahydroquinazolin-6-yl)urea] | increased ATGL level | ability to induce ATGL | – |
